Target: T1, RORc ligand binding domain (Homo sapiens, UniProt P51449)
T1 construct: host or cells: E. coli
T1 sequence (P51449 269-508 limits assumed): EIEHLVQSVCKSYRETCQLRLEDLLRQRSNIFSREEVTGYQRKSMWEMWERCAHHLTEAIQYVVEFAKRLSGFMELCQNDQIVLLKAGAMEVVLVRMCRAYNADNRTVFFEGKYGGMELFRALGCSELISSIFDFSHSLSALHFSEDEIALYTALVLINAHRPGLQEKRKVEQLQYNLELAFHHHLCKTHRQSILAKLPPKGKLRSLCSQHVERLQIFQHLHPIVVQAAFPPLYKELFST
Assay: In vitro RORc ligand binding assay (25-[3H]hydroxycholesterol displacement, filter binding)
Experimental: This assay was used to determine a compound's potency in inhibiting activity of RORc by determining, Kiapp, IC50, or percent inhibition values.
On day of the assay, 100 uL of 0.05% CHAPS (in deionized H2O) was added to all wells of the GFB Unifilter plate and allowed soak for 1 h. A wash buffer of 50 mM HEPES (pH 7.4), 150 mM NaCl, and 5 mM MgCl2 was prepared to wash the filter plate. To prepare an assay buffer, BSA was added to the wash buffer to reach 0.01% and DTT was added to reach 1 mM.
The 20× compound stocks were diluted in DMSO with Assay Buffer 4-fold to reach 5× the final test concentration in 25% DMSO (10 uL compound+30 uL Assay Buffer). Solutions were mixed by aspiration several times with a pipette set on 50 uL volume. For the assay, 10 uL of 5× compound stock solutions in 25% DMSO were added to the assay plate in duplicate.
For two point screening, 10 mM stock compound solutions were diluted in DMSO to obtain 200 uM (20× the high test concentration) and then diluted 10-fold further to reach 20 uM (20× the low test concentration). The 20× stocks were diluted 4-fold with Assay Buffer (10 uL compound+30 uL Assay Buffer) to reach 5× the test concentrations (50 uM and 5 uM) and 10 uL were added to two assay plates for the duplicate wells. With each concentration tested on 2 plates, each set of 80 compounds used 4 assay plates (1 uM and 10 uM, with n=2).
For 25-hydroxycholesterol in 25% DMSO/75% Assay Buffer; 10 uL per well was used for NSB samples. Wells for Total Binding and No Receptor sample determination contained 10 uL of 25% DMSO/75% Assay Buffer per well.
Add 20 uL to all wells to reach 6 nM final concentration in the assay.
Stock receptor solution was diluted in assay buffer to obtain 1.5 ug/mL in Assay Buffer. 20 uL was added to all wells. For No Receptor samples, 20 uL Assay Buffer was substituted for receptor solution.
Assay plates were 96-well polypropylene V-bottom plates. 10 uL of 5× compound in 25% DMSO/75% Assay Buffer was added to Test wells. 10 uL of 25% DMSO/75% Assay Buffer was added to Total Binding or No Receptor wells. 10 uL of 5 uM 25-hydroxycholesterol in 25% DMSO/75% Assay Buffer was added to NSB wells. […] 20 uL of 1.5 ug/mL RORc receptor was added to wells (or 40 uL Assay Buffer to No R wells). Following addition to the wells, the plates were incubated 3 h at 25° C.
Using a Packard Filtermate Harvester, the filter plate were washed 4 times following transfer of the incubated samples. Plates were dry-filtered completely (2 h at 50° C. or overnight at room temperature). 50 uL Microscint 0 was added to all wells and read on Topcount protocol Inverted.

IC50 [µM]	SMILES
0.0074	CC1(C)[C@H]2CC[C@]1([C@H]1CCCN(C(=O)NCCO)C1)c1nnc(-c3c(F)cccc3F)cc12 (stereo in doubt) [Compound 152, 3-[5-(2,6-difluorophenyl)-11,11-dimethyl-3,4-diazatricyclo[6.2.1.02,7]undeca-2,4,6-trien-1-yl]-N-(2-hydroxyethyl)piperidine-1-carboxamide]
0.367	CC1(C)[C@H]2CC[C@]1([C@H]1CNCCO1)c1nnc(-c3c(F)cccc3F)cc12 [Compound 70, (S)-2-((5R,8R)-3-(2,6-difluorophenyl)-9,9-dimethyl-5,6,7,8-tetrahydro-5,8-methanocinnolin-8-yl)morpholine]
0.021	CC1(C)[C@H]2CC[C@]1([C@H]1CN(C(=O)c3c[nH]c(=O)cn3)CCO1)c1nnc(-c3c(F)cccc3F)cc12 [Compound 119, 5-[2-[5-(2,6-difluorophenyl)-11,11-dimethyl-3,4-diazatricyclo[6.2.1.02,7]undeca-2,4,6-trien-1-yl]morpholine-4-carbonyl]-1H-pyrazin-2-one]
0.013	CC1(C)[C@H]2CC[C@]1([C@H]1CCCN(C(=O)NCCS(C)(=O)=O)C1)c1nnc(-c3c(F)cccc3F)cc12 [Compound 158, 3-[5-(2,6-difluorophenyl)-11,11-dimethyl-3,4-diazatricyclo[6.2.1.02,7]undeca-2,4,6-trien-1-yl]-N-(2-methylsulfonylethyl)piperidine-1-carboxamide]
0.029	CCNC(=O)N1CCC[C@H]([C@@]23CC[C@@H](c4cc(-c5c(F)cccc5F)nnc42)C3(C)C)C1 [Compound 136, 3-[5-(2,6-difluorophenyl)-11,11-dimethyl-3,4-diazatricyclo[6.2.1.02,7]undeca-2,4,6-trien-1-yl]-N-ethyl-piperidine-1-carboxamide]
0.37	CC1(C)[C@H]2CC[C@]1([C@H]1CCCN(C(=O)NC3CC(O)C3)C1)c1nnc(-c3c(F)cccc3F)cc12 (stereo in doubt) [Compound 148, 3-[5-(2,6-difluorophenyl)-11,11-dimethyl-3,4-diazatricyclo[6.2.1.02,7]undeca-2,4,6-trien-1-yl]-N-(3-hydroxycyclobutyl)piperidine-1-carboxamide]
0.0241	CC[C@@H](O[C@@]12CC[C@@H](c3cc(-c4c(F)cccc4F)nnc31)C2(C)C)c1nnc(C)o1 [Compound 20, 2-((R)-1-(((5S,8R)-3-(2,6-difluorophenyl)-9,9-dimethyl-5,6,7,8-tetrahydro-5,8-methanocinnolin-8-yl)oxy)propyl)-5-methyl-1,3,4-oxadiazole]
0.0045	CC1(C)C2CCC1(C1CCCN(C(=O)c3ncco3)C1)c1nnc(-c3c(F)cccc3F)cc12 (stereo not drawn) [Compound 159, [3-[5-(2,6-difluorophenyl)-11,11-dimethyl-3,4-diazatricyclo[6.2.1.02,7]undeca-2,4,6-trien-1-yl]-1-piperidyl]-oxazol-2-yl-methanone]
0.029	CC1(C)[C@H]2CC[C@]1([C@@H]1CN(C(N)=O)CCN1)c1nnc(-c3c(F)cccc3F)cc12 [Compound 184, 3-[5-(2,6-difluorophenyl)-11,11-dimethyl-3,4-diazatricyclo[6.2.1.02,7]undeca-2,4,6-trien-1-yl]piperazine-1-carboxamide]
0.012	CC[C@@H](O[C@@]12CC[C@@H](c3cc(-c4c(F)cccc4F)nnc31)C2(C)C)C(=O)OC [Compound 112, methyl (2R)-2-[[(1R,8S)-5-(2,6-difluorophenyl)-11,11-dimethyl-3,4-diazatricyclo[6.2.1.02,7]undeca-2,4,6-trien-1-yl]oxy]butanoate]
0.353	CC1(C)[C@H]2CC[C@]1(OC(=O)N1CCC1)c1nnc(-c3c(F)cccc3F)cc12 [Compound 10, (5S,8R)-3-(2,6-difluorophenyl)-9,9-dimethyl-5,6,7,8-tetrahydro-5,8-methanocinnolin-8-yl azetidine-1-carboxylate]
0.0568	CC1(C)[C@H]2CC[C@]1([C@@H]1CN(C(N)=O)CCO1)c1nnc(-c3c(F)cccc3F)cc12 [Compound 68, (R)-2-((5R,8R)-3-(2,6-difluorophenyl)-9,9-dimethyl-5,6,7,8-tetrahydro-5,8-methanocinnolin-8-yl)morpholine-4-carboxamide]
0.136	CC(C)(C)OC(=O)N1CCN[C@H]([C@@]23CC[C@@H](c4cc(-c5c(F)cccc5F)nnc42)C3(C)C)C1 [Compound 62, (R)-tert-butyl 3-((5R,8S)-3-(2,6-difluorophenyl)-9,9-dimethyl-5,6,7,8-tetrahydro-5,8-methanocinnolin-8-yl)piperazine-1-carboxylate]
0.015	C[C@@H](O)CNC(=O)N1CCC[C@H]([C@@]23CC[C@@H](c4cc(-c5c(F)cccc5F)nnc42)C3(C)C)C1 [Compound 154, 3-[5-(2,6-difluorophenyl)-11,11-dimethyl-3,4-diazatricyclo[6.2.1.02,7]undeca-2,4,6-trien-1-yl]-N-(2-hydroxypropyl)piperidine-1-carboxamide]
0.0095	CC(CO)NC(=O)N1CCO[C@H]([C@@]23CC[C@@H](c4cc(-c5c(F)cccc5F)nnc42)C3(C)C)C1 (stereo in doubt) [Compound 141, 2-[5-(2,6-difluorophenyl)-11,11-dimethyl-3,4-diazatricyclo[6.2.1.02,7]undeca-2,4,6-trien-1-yl]-N-(2-hydroxy-1-methyl-ethyl)morpholine-4-carboxamide]
0.515	CC1(C)[C@H]2CC[C@]1(OCc1ncccn1)c1nnc(-c3c(F)cccc3F)cc12 [Compound 13, (5S,8R)-3-(2,6-difluorophenyl)-9,9-dimethyl-8-(pyrimidin-2-ylmethoxy)-5,6,7,8-tetrahydro-5,8-methanocinnoline]
0.0453	CC[C@@H](O[C@@]12CC[C@@H](c3cc(-c4c(F)cccc4F)nnc31)C2(C)C)C(=O)NCc1nnc(C)o1 [Compound 59, (R)-2-(((5S,8R)-3-(2,6-difluorophenyl)-9,9-dimethyl-5,6,7,8-tetrahydro-5,8-methanocinnolin-8-yl)oxy)-N-((5-methyl-1,3,4-oxadiazol-2-yl)methyl)butanamide]
0.369	CN(C)C(=O)N1CCO[C@H]([C@@]23CC[C@@H](c4cc(-c5c(F)cccc5F)nnc42)C3(C)C)C1 [Compound 88, (R)-2-((5R,8R)-3-(2,6-difluorophenyl)-9,9-dimethyl-5,6,7,8-tetrahydro-5,8-methanocinnolin-8-yl)-N,N-dimethylmorpholine-4-carboxamide]
0.101	Cc1noc(N2CCO[C@@H]([C@@]34CC[C@@H](c5cc(-c6c(F)cccc6F)nnc53)C4(C)C)C2)n1 [Compound 91, (S)-2-((5R,8R)-3-(2,6-difluorophenyl)-9,9-dimethyl-5,6,7,8-tetrahydro-5,8-methanocinnolin-8-yl)-4-(3-methyl-1,2,4-oxadiazol-5-yl)morpholine]
0.014	CC1(C)[C@H]2CC[C@]1([C@H]1CCCN(C(=O)c3cnccn3)C1)c1nnc(-c3c(F)cccc3F)cc12 [Compound 132, [3-[5-(2,6-difluorophenyl)-11,11-dimethyl-3,4-diazatricyclo[6.2.1.02,7]undeca-2,4,6-trien-1-yl]-1-piperidyl]-pyrazin-2-yl-methanone]
0.0425	CC1(C)[C@H]2CC[C@]1(Oc1ccccn1)c1nnc(-c3c(F)cccc3F)cc12 [Compound 12, (5S,8R)-3-(2,6-difluorophenyl)-9,9-dimethyl-8-(pyridin-2-yloxy)-5,6,7,8-tetrahydro-5,8-methanocinnoline]

— US9994551B2, “Pyridazine derivatives as RORc modulators” (Genentech, Inc., priority 2015, dated 2018)
